Experimental data from US20100298141A1, “SUBSTITUTED PYRIDINE N-OXIDE HERBICIDES” (E. I. DU PONT DE NEMOURS AND COMPANY, priority 2007, published 2010).

Experiments:
[1] = test system: barnyardgrass; test: Test A pre-/postemergence greenhouse test; type: in vivo, Echinochloa crus-galli; conditions: for Barnyardgrass plant response rating: 0 to 100 scale; for Plant response rating, Barnyardgrass: 0 to 100 scale where 0 is no effect and 100 is complete control
In short: (§1)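 Seeds sown in a loam soil–sand blend got a preemergence directed soil spray of compound in a non-phytotoxic solvent mixture containing surfactant. Postemergence sprays of the same formulation went at the same time onto plants 2–10 cm tall at the one- to two-leaf stage. Injury was scored visually against untreated controls after about ten days in the greenhouse.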

[2] = test system: morningglory; test: Test A pre-/postemergence greenhouse test; type: in vivo, Ipomoea spp.; conditions: for Morningglory plant response rating: 0 to 100 scale; for Plant response rating, Morningglory: 0 to 100 scale where 0 is no effect and 100 is complete control
In short: as §1

[3] = test system: Goosegrass; test: Test C pre-/postemergence test; type: in vivo, Eleusin indica; conditions: for Plant response rating (0 to 100), Goosegrass: 250 g ai/ha
In short: (§2)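 Compounds in a non-phytotoxic solvent with surfactant applied preemergence to seeded pots and, at the same time, postemergence to plants 2–18 cm tall (1- to 4-leaf stage). Paddy tests: pots flooded to 3 cm, compound applied into the water, depth held throughout.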

[4] = test system: eastern black nightshade; test: Test C pre-/postemergence test; type: in vivo, Solanum ptycanthum
In short: as §2

[5] = test system: crabgrass; test: Test C pre-/postemergence test; type: in vivo, Digitaria sanguinalis; conditions: for Plant response rating (0 to 100), Crabgrass, Large: 250 g ai/ha
In short: as §2

[6] = test system: wheat; test: Test C pre-/postemergence test; type: in vivo, Triticum aestivum
In short: as §2

[7] = test system: umbrella sedge; test: Test C flooded paddy test; type: in vivo, Cyperus difformis; conditions: Flood
In short: (§3)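 Pots were flooded to 3 cm above the soil surface at treatment, compound applied directly to the paddy water, and that depth held throughout. Plants were kept in a greenhouse for 13 to 15 days, then visually rated against untreated controls.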

[8] = test system: rice; test: Test C flooded paddy test; type: in vivo, Oryza sativa; conditions: Flood
In short: as §3

[9] = test system: lambsquarters; test: Test C pre-/postemergence test; type: in vivo, Chenopodium album
In short: as §2

[10] = test system: giant foxtail; test: Test A pre-/postemergence greenhouse test; type: in vivo, Setaria faberi; conditions: for Foxtail, Giant plant response rating: 0 to 100 scale; for Plant response rating, Foxtail, Giant: 0 to 100 scale where 0 is no effect and 100 is complete control
In short: as §1

[11] = test system: common (oilseed) sunflower; test: Test C pre-/postemergence test; type: in vivo, Helianthus annuus
In short: as §2

[12] = test system: wheat; test: Test A pre-/postemergence greenhouse test; type: in vivo, Triticum aestivum; conditions: for Wheat plant response rating: 0 to 100 scale; for Plant response rating, Wheat: 0 to 100 scale where 0 is no effect and 100 is complete control
In short: as §1

[13] = test system: corn; test: Test A pre-/postemergence greenhouse test; type: in vivo, Zea mays; conditions: for Corn plant response rating: 0 to 100 scale; for Plant response rating, Corn: 0 to 100 scale where 0 is no effect and 100 is complete control
In short: as §1

[14] = test system: Surinam grass; test: Test C pre-/postemergence test; type: in vivo, Brachiaria decumbens
In short: as §2

[15] = test system: bermudagrass; test: Test C pre-/postemergence test; type: in vivo, Cynodon dactylon; conditions: for Plant response rating (0 to 100), Bermudagrass: 250 g ai/ha
In short: as §2

[16] = test system: pigweed; test: Test C pre-/postemergence test; type: in vivo, Amaranthus retroflexus
In short: as §2

[17] = test system: redroot pigweed; test: Test A pre-/postemergence greenhouse test; type: in vivo, Amaranthus retroflexus; conditions: for Pigweed plant response rating: 0 to 100 scale; for Plant response rating, Pigweed: 0 to 100 scale where 0 is no effect and 100 is complete control
In short: as §1

[18] = Postemergence, 125 g ai/ha, 0 is no effect, 100 is complete control
[19] = Postemergence, 500 g ai/ha, 0 is no effect, 100 is complete control
[20] = Preemergence, 125 g ai/ha, 0 no effect, 100 complete control
[21] = 31 g ai/ha, Preemergence, scale 0 to 100
[22] = 62 g ai/ha, preemergence, scale 0 (no effect) to 100 (complete control)
[23] = preemergence, 125 g ai/ha, scale 0 (no effect) to 100 (complete control)
[24] = 31 g ai/ha, scale 0 to 100 (0 no effect, 100 complete control)
[25] = 62 g ai/ha, scale 0 to 100, 0 no effect, 100 complete control, 13 to 15 days
[26] = 125 g ai/ha, scale 0 to 100, 0 no effect, 100 complete control, 13 to 15 days
[27] = 250 g ai/ha, scale 0 to 100 (0 no effect, 100 complete control)
[28] = 62 g ai/ha, Preemergence, scale 0 to 100
[29] = Preemergence, 31 g ai/ha, scale 0 to 100 (0 no effect, 100 complete control)

CC(c1c(C(F)(F)F)nn(C)c1Cl)S(=O)(=O)c1cccc[n+]1[O-] (centres unmarked) [Compound 10]
Barnyardgrass plant response rating [1, 18]: 80
Barnyardgrass plant response rating [1, 19]: 90
Barnyardgrass plant response rating [1, 20]: 100
Plant response rating, Barnyardgrass ([1]; Preemergence, 500 g ai/ha): 100
Morningglory plant response rating [2, 18]: 20
Morningglory plant response rating [2, 19]: 90
Morningglory plant response rating [2, 20]: 80
Plant response rating, Morningglory ([2]; Preemergence, 500 g ai/ha): 90
Goosegrass plant response rating [3, 21]: 100
Goosegrass plant response rating [3, 22]: 100
Plant response rating (0 to 100), Goosegrass ([3]; Preemergence): 100
Goosegrass plant response rating [3, 23]: 100
Nightshade plant response rating [4, 21]: 90
Nightshade plant response rating [4, 22]: 98
Plant response rating (0 to 100), Nightshade ([4]; Preemergence, 250 g ai/ha): 100
Nightshade plant response rating [4, 23]: 100
Crabgrass, Large plant response rating [5, 21]: 100
Crabgrass, Large plant response rating [5, 22]: 100
Plant response rating (0 to 100), Crabgrass, Large ([5]; Preemergence): 100
Crabgrass, Large plant response rating [5, 23]: 100
Wheat plant response rating [6, 22]: 35
Plant response rating (0 to 100), Wheat ([6]; Preemergence, 250 g ai/ha): 80
Wheat plant response rating [6, 23]: 60
Plant response rating, Sedge, Umbrella [7, 24]: 40
Plant response rating, Sedge, Umbrella [7, 25]: 80
Plant response rating, Sedge, Umbrella [7, 26]: 90
Plant response rating, Sedge, Umbrella [7, 27]: 90
Plant response rating, Rice [8, 24]: 0
Plant response rating, Rice [8, 25]: 25
Plant response rating, Rice [8, 26]: 70
Plant response rating, Rice [8, 27]: 80
Lambsquarters plant response rating [9, 21]: 0
Lambsquarters plant response rating [9, 22]: 98
Plant response rating (0 to 100), Lambsquarters ([9]; Preemergence, 250 g ai/ha): 100
Lambsquarters plant response rating [9, 23]: 100
Foxtail, Giant plant response rating [10, 18]: 80
Foxtail, Giant plant response rating [10, 19]: 90
Foxtail, Giant plant response rating [10, 20]: 100
Plant response rating, Foxtail, Giant ([10]; Preemergence, 500 g ai/ha): 100
Sunflower plant response rating [11, 22]: 0
Plant response rating (0 to 100), Sunflower ([11]; Preemergence, 250 g ai/ha): 100
Sunflower plant response rating [11, 23]: 85
Wheat plant response rating [12, 18]: 50
Wheat plant response rating [12, 19]: 70
Wheat plant response rating [12, 20]: 60
Plant response rating, Wheat ([12]; Preemergence, 500 g ai/ha): 80
Corn plant response rating [13, 18]: 40
Corn plant response rating [13, 19]: 60
Corn plant response rating [13, 20]: 0
Plant response rating, Corn ([13]; Preemergence, 500 g ai/ha): 50
Surinam Grass plant response rating [14, 22]: 98
Plant response rating (0 to 100), Surinam Grass ([14]; Preemergence, 250 g ai/ha): 100
Surinam Grass plant response rating [14, 23]: 100
Bermudagrass plant response rating [15, 21]: 95
Bermudagrass plant response rating [15, 22]: 100
Plant response rating (0 to 100), Bermudagrass ([15]; Preemergence): 100
Bermudagrass plant response rating [15, 23]: 100
Pigweed plant response rating [16, 21]: 70
Pigweed plant response rating [16, 22]: 100
Plant response rating (0 to 100), Pigweed ([16]; Preemergence, 250 g ai/ha): 100
Pigweed plant response rating [16, 23]: 100
Pigweed plant response rating [17, 18]: 30
Pigweed plant response rating [17, 19]: 60
Pigweed plant response rating [17, 20]: 100
Plant response rating, Pigweed ([17]; Preemergence, 500 g ai/ha): 100

Cc1cc[n+]([O-])c(S(=O)(=O)Cc2c(C(F)(F)F)nn(C)c2Cl)c1 [Compound 19]
Barnyardgrass plant response rating [1, 18]: 40
Barnyardgrass plant response rating [1, 19]: 80
Barnyardgrass plant response rating [1, 20]: 80
Plant response rating, Barnyardgrass ([1]; Preemergence, 500 g ai/ha): 100
Morningglory plant response rating [2, 18]: 20
Morningglory plant response rating [2, 19]: 30
Morningglory plant response rating [2, 20]: 60
Plant response rating, Morningglory ([2]; Preemergence, 500 g ai/ha): 80
Goosegrass plant response rating [3, 28]: 100
Plant response rating, Goosegrass [3, 29]: 100
Plant response rating (0 to 100), Goosegrass ([3]; Preemergence): 100
Nightshade plant response rating [4, 28]: 100
Plant response rating, Nightshade [4, 29]: 85
Crabgrass, Large plant response rating [5, 28]: 100
Plant response rating, Crabgrass, Large [5, 29]: 98
Plant response rating (0 to 100), Crabgrass, Large ([5]; Preemergence): 100
Wheat plant response rating [6, 28]: 0
Plant response rating, Wheat [6, 29]: 0
Plant response rating, Sedge, Umbrella [7, 24]: 0
Plant response rating, Sedge, Umbrella [7, 25]: 0
Plant response rating, Sedge, Umbrella [7, 26]: 70
Plant response rating, Sedge, Umbrella ([7]; 250 g ai/ha, scale 0 to 100, 0 no effect, 100 complete control, 13 to 15 days): 95
Plant response rating, Rice [8, 24]: 0
Plant response rating, Rice [8, 25]: 0
Plant response rating, Rice [8, 26]: 30
Plant response rating, Rice [8, 27]: 70
Lambsquarters plant response rating [9, 28]: 0
Plant response rating, Lambsquarters [9, 29]: 0
Foxtail, Giant plant response rating [10, 18]: 50
Foxtail, Giant plant response rating [10, 19]: 80
Foxtail, Giant plant response rating [10, 20]: 80
Plant response rating, Foxtail, Giant ([10]; Preemergence, 500 g ai/ha): 100
Sunflower plant response rating [11, 28]: 0
Plant response rating, Sunflower [11, 29]: 0
Wheat plant response rating [12, 18]: 0
Wheat plant response rating [12, 19]: 50
Wheat plant response rating [12, 20]: 40
Plant response rating, Wheat ([12]; Preemergence, 500 g ai/ha): 70
Corn plant response rating [13, 18]: 0
Corn plant response rating [13, 19]: 50
Corn plant response rating [13, 20]: 30
Plant response rating, Corn ([13]; Preemergence, 500 g ai/ha): 50
Surinam Grass plant response rating [14, 28]: 50
Plant response rating, Surinam Grass [14, 29]: 0
Bermudagrass plant response rating ([15]; 62 g ai/ha, Preemergence, scale 0 to 100 (0 no effect, 100 complete control)): 100
Plant response rating, Bermudagrass [15, 29]: 85
Plant response rating (0 to 100), Bermudagrass ([15]; Preemergence): 100
Bermudagrass plant response rating [15, 23]: 100
Pigweed plant response rating [16, 28]: 100
Plant response rating, Pigweed [16, 29]: 80
Pigweed plant response rating [17, 18]: 10
Pigweed plant response rating [17, 19]: 30
Pigweed plant response rating [17, 20]: 100
Plant response rating, Pigweed ([17]; Preemergence, 500 g ai/ha): 100
